Tested on: subjects with pulmonary hypertension
Test: Oxygen saturation by pulse oximeter and methemoglobin by continuous percutaneous co-oximetry
Assay type: in vivo, human
Experimental: Oxygen saturation measured by pulse oximeter and methemoglobin levels monitored by continuous percutaneous co-oximetry prior to dose administration and through 4 hours post-dose were monitored closely.

[1] = Patient 1, nitrite 45 mg inhaled, 15 min
[2] = Patient 1, nitrite 45 mg inhaled, 30 min
[3] = Patient 1, nitrite 45 mg inhaled, 45 min
[4] = Patient 1, nitrite 45 mg inhaled, 60 min
[5] = Patient 1, nitrite 90 mg inhaled, 15 min
[6] = Patient 1, nitrite 90 mg inhaled, 30 min
[7] = Patient 1, nitrite 90 mg inhaled, 45 min
[8] = Patient 1, nitrite 90 mg inhaled, 60 min
[9] = Patient 2, nitrite 45 mg inhaled, 15 min
[10] = Patient 2, nitrite 45 mg inhaled, 30 min
[11] = Patient 2, nitrite 45 mg inhaled, 45 min
[12] = Patient 2, nitrite 45 mg inhaled, 60 min
[13] = Patient 2, nitrite 90 mg inhaled, 15 min
[14] = Patient 2, nitrite 90 mg inhaled, 30 min
[15] = Patient 2, nitrite 90 mg inhaled, 45 min
[16] = Patient 2, nitrite 90 mg inhaled, 60 min
[17] = Patient 3, nitrite 45 mg inhaled, 15 min
[18] = Patient 3, nitrite 45 mg inhaled, 30 min
[19] = Patient 3, nitrite 45 mg inhaled, 45 min
[20] = Patient 3, nitrite 45 mg inhaled, 60 min
[21] = Patient 3, nitrite 90 mg inhaled, 15 min
[22] = Patient 3, nitrite 90 mg inhaled, 30 min
[23] = Patient 3, nitrite 90 mg inhaled, 45 min
[24] = Patient 3, nitrite 90 mg inhaled, 60 min
[25] = Patient 4, nitrite 45 mg inhaled, 15 min
[26] = Patient 4, nitrite 45 mg inhaled, 30 min
[27] = Patient 4, nitrite 45 mg inhaled, 45 min
[28] = Patient 4, nitrite 45 mg inhaled, 60 min
[29] = Patient 4, nitrite 90 mg inhaled, 15 min
[30] = Patient 4, nitrite 90 mg inhaled, 30 min
[31] = Patient 4, nitrite 90 mg inhaled, 45 min
[32] = Patient 4, nitrite 90 mg inhaled, 60 min
[33] = Patient 5, nitrite 45 mg inhaled, 15 min
[34] = Patient 5, nitrite 45 mg inhaled, 30 min
[35] = Patient 5, nitrite 45 mg inhaled, 45 min
[36] = Patient 5, nitrite 45 mg inhaled, 60 min
[37] = Patient 5, nitrite 90 mg inhaled, 15 min
[38] = Patient 5, nitrite 90 mg inhaled, 30 min
[39] = Patient 5, nitrite 90 mg inhaled, 45 min
[40] = Patient 5, nitrite 90 mg inhaled, 60 min

`O=NO` [nitrite, sodium nitrite] was tested, and the “Syst O2sat” value [1] was 95, the metHgB [1] was 1.1 and the “Syst O2sat” value [2] was 100. For the same compound, the metHgB [2] was 1.1, the “Syst O2sat” value [3] was 92 and the metHgB [3] was 1.3. For the same compound, the “Syst O2sat” value [4] was 92, the metHgB [4] was 1.5 and the “Syst O2sat” value [5] was 95. The metHgB [5] was 1.4, the “Syst O2sat” value [6] was 94 and the metHgB [6] was 1.3. The “Syst O2sat” value [7] was 94, the metHgB [7] was 1.2 and the “Syst O2sat” value [8] was 94. For the same compound, the metHgB [8] was 1.4, the “Syst O2sat” value [9] was 98 and the metHgB [9] was 1. The “Syst O2sat” value [10] was 99, the metHgB [10] was 1 and the “Syst O2sat” value [11] was 99. For the same compound, the metHgB [11] was 1, the “Syst O2sat” value [12] was 99 and the metHgB [12] was 1. For the same compound, the “Syst O2sat” value [13] was 96, the metHgB [13] was 1.4 and the “Syst O2sat” value [14] was 98. The metHgB [14] was 1.7, the “Syst O2sat” value [15] was 98 and the metHgB [15] was 1.7. The “Syst O2sat” value [16] was 100, the metHgB [16] was 1.6 and the “Syst O2sat” value [17] was 92. The metHgB [17] was 1.1, the “Syst O2sat” value [18] was 94 and the metHgB [18] was 1.3. The “Syst O2sat” value [19] was 93, the metHgB [19] was 1.5 and the “Syst O2sat” value [20] was 94. For the same compound, the metHgB [20] was 1.5, the “Syst O2sat” value [21] was 97 and the metHgB [21] was 1.7. The “Syst O2sat” value [22] was 95, the metHgB [22] was 1.7 and the “Syst O2sat” value [23] was 95. The metHgB [23] was 1.6, the “Syst O2sat” value [24] was 95 and the metHgB [24] was 1.5. For the same compound, the “Syst O2sat” value [25] was 98, the metHgB [25] was 1.3 and the “Syst O2sat” value [26] was 98. For the same compound, the metHgB [26] was 1.1, the “Syst O2sat” value [27] was 99 and the metHgB [27] was 1. For the same compound, the “Syst O2sat” value [28] was 97, the metHgB [28] was 0.8 and the “Syst O2sat” value [29] was 97. For the same compound, the metHgB [29] was 1.7, the “Syst O2sat” value [30] was 97 and the metHgB [30] was 2. The “Syst O2sat” value [31] was 96, the metHgB [31] was 1.2 and the “Syst O2sat” value [32] was 96. For the same compound, the metHgB [32] was 1.2, the “Syst O2sat” value [33] was 94 and the metHgB [33] was 1.1. For the same compound, the “Syst O2sat” value [34] was 98, the metHgB [34] was 0.8 and the “Syst O2sat” value [35] was 97. For the same compound, the metHgB [35] was 0.7, the “Syst O2sat” value [36] was 94 and the metHgB [36] was 0.8. The “Syst O2sat” value [37] was 95, the metHgB [37] was 0.9 and the “Syst O2sat” value [38] was 97. For the same compound, the metHgB [38] was 0.7, the “Syst O2sat” value [39] was 98 and the metHgB [39] was 0.7. The “Syst O2sat” value [40] was 97, the metHgB [40] was 0.5 and the “Syst O2sat” value (Patient 6, nitrite 45, 15 min) was 95. For the same compound, the metHgB (Patient 6, nitrite 45, 15 min) was 1.1, the “Syst O2sat” value (Patient 6, nitrite 45, 30 min) was 99 and the metHgB (Patient 6, nitrite 45, 30 min) was 1.3. The “Syst O2sat” value (Patient 6, nitrite 45, 45 min) was 96, the metHgB (Patient 6, nitrite 45, 45 min) was 1.3 and the “Syst O2sat” value (Patient 6, nitrite 45, 60 min) was 96. For the same compound, the metHgB (Patient 6, nitrite 45, 60 min) was 1.2, the “Syst O2sat” value (Patient 6, nitrite 90, 15 min) was 95 and the metHgB (Patient 6, nitrite 90, 15 min) was 1.9. For the same compound, the “Syst O2sat” value (Patient 6, nitrite 90, 30 min) was 95, the metHgB (Patient 6, nitrite 90, 30 min) was 1.9 and the “Syst O2sat” value (Patient 6, nitrite 90, 45 min) was 96. The metHgB (Patient 6, nitrite 90, 45 min) was 1.7, the “Syst O2sat” value (Patient 6, nitrite 90, 60 min) was 95 and the metHgB (Patient 6, nitrite 90, 60 min) was 1.7. The methemoglobin (at the doses tested (45 mg and 90 mg inhaled)) was “does not significantly affect”.

Source: patent US11986493B2 (University of Pittsburgh—Of the Commonwealth System of …, priority 2013, dated 2024)
